Results taken from patent publication US20160214961A1, “NOVEL SALTS OF CRIZOTINIB AND THEIR PREPARATION” (SHILPA MEDICARE LIMITED, priority 2013, published 2016).

Key:
[1] = Stability on handling and storage of the salts; format: physicochemical; details: storage for longer time; no significant or measurable change
[2] = cited from earlier work
[3] = class IV = low solubility and low permeability; cited from earlier work
[4] = powder; cited from earlier work

stability to handle and store for longer time (morphology and physicochemical characteristics) [1] | SMILES | solubility in acidic pH ([2]; acidic pH) | solubility in water ([2]; water) | Biopharmaceutics Classification System (BCS) class [3] | hygroscopicity [4]
adequately stable | C[C@@H](Oc1cc(-c2cnn(C3CCNCC3)c2)cnc1N)c1c(Cl)ccc(F)c1Cl [Crizotinib Ferulate] | – | – | – | –
– | C[C@@H](Oc1cc(-c2cnn(C3CCNCC3)c2)cnc1N)c1c(Cl)ccc(F)c1Cl [Crizotinib, (R)-3-[1-(2,6-Dichloro-3-fluorophenyl)ethoxy]-5-[1-(piperidin-4-yl)-1H-pyrazol-4-yl]pyridin-2-amine] | highly soluble | insoluble | class IV | non-hygroscopic
